The NIST ThermoML archive (doi:10.1016/j.jct.2011.07.005)

Settings: Liquid; for mass density: Vibrating tube method

CCCCC(CC)COC(=O)CCCCCCCCC(=O)OCC(CC)CCCC (centres undefined) [bis(2-ethylhexyl) decanedioate]
Settings | mass density [kg/m3] | viscosity [mPa·s]
278.15 K, 101.33 kPa | 924.7 | –
278.15 K, Concentric cylinders viscometry | – | 42.04
283.15 K, 101.33 kPa | 921.2 | –
283.15 K, Concentric cylinders viscometry | – | 32.77
288.15 K, 101.33 kPa | 917.6 | –
288.15 K, Concentric cylinders viscometry | – | 26.01
293.15 K, 101.33 kPa | 913.9 | –
293.15 K, Concentric cylinders viscometry | – | 21
298.15 K, 100 kPa | 909.8 | –
298.15 K, 101.33 kPa | 910.3 | –
298.15 K, 1000 kPa | 910.4 | –
298.15 K, 5000 kPa | 912.8 | –
298.15 K, 10000 kPa | 915.6 | –
298.15 K, 15000 kPa | 918.4 | –
298.15 K, 20000 kPa | 921.2 | –
298.15 K, 30000 kPa | 926.4 | –
298.15 K, 40000 kPa | 931.4 | –
298.15 K, 45000 kPa | 933.8 | –
298.15 K, 50000 kPa | 936.1 | –
298.15 K, 60000 kPa | 940.6 | –
298.15 K, Concentric cylinders viscometry | – | 17.21
303.15 K, 101.33 kPa | 906.7 | –
303.15 K, Concentric cylinders viscometry | – | 14.32
308.15 K, 101.33 kPa | 903.1 | –
308.15 K, Concentric cylinders viscometry | – | 12.07
313.15 K, 101.33 kPa | 899.5 | –
313.15 K, Concentric cylinders viscometry | – | 10.28
318.15 K, 101.33 kPa | 895.9 | –
318.15 K, Concentric cylinders viscometry | – | 8.845
323.15 K, 100 kPa | 892 | –
323.15 K, 101.33 kPa | 892.3 | –
323.15 K, 1000 kPa | 892.6 | –
323.15 K, 5000 kPa | 895.3 | –
323.15 K, 10000 kPa | 898.5 | –
323.15 K, 15000 kPa | 901.7 | –
323.15 K, 20000 kPa | 904.7 | –
323.15 K, 30000 kPa | 910.4 | –
323.15 K, 40000 kPa | 915.8 | –
323.15 K, 45000 kPa | 918.4 | –
323.15 K, 50000 kPa | 920.9 | –
323.15 K, 60000 kPa | 925.7 | –
323.15 K, Concentric cylinders viscometry | – | 7.679
328.15 K, 101.33 kPa | 888.7 | –
328.15 K, Concentric cylinders viscometry | – | 6.727
333.15 K, 101.33 kPa | 885.1 | –
333.15 K, Concentric cylinders viscometry | – | 5.939
338.15 K, 101.33 kPa | 881.4 | –
338.15 K, Concentric cylinders viscometry | – | 5.275
343.15 K, 101.33 kPa | 877.9 | –
343.15 K, Concentric cylinders viscometry | – | 4.719
348.15 K, 100 kPa | 874 | –
348.15 K, 101.33 kPa | 874.3 | –
348.15 K, 1000 kPa | 874.7 | –
348.15 K, 5000 kPa | 877.7 | –
348.15 K, 10000 kPa | 881.3 | –
348.15 K, 15000 kPa | 884.8 | –
348.15 K, 20000 kPa | 888.2 | –
348.15 K, 30000 kPa | 894.5 | –
348.15 K, 40000 kPa | 900.5 | –
348.15 K, 45000 kPa | 903.3 | –
348.15 K, 50000 kPa | 906 | –
348.15 K, 60000 kPa | 911.3 | –
348.15 K, Concentric cylinders viscometry | – | 4.248
353.15 K, 101.33 kPa | 870.7 | –
353.15 K, Concentric cylinders viscometry | – | 3.843
358.15 K, 101.33 kPa | 867.1 | –
358.15 K, Concentric cylinders viscometry | – | 3.494
363.15 K, 101.33 kPa | 863.7 | –
363.15 K, Concentric cylinders viscometry | – | 3.169
368.15 K, 101.33 kPa | 859.9 | –
368.15 K, Concentric cylinders viscometry | – | 2.902
373.15 K, 101.33 kPa | 856.4 | –
373.15 K, 1000 kPa | 856.9 | –
373.15 K, 5000 kPa | 860.3 | –
373.15 K, 10000 kPa | 864.3 | –
373.15 K, 15000 kPa | 868.1 | –
373.15 K, 20000 kPa | 871.8 | –
373.15 K, 30000 kPa | 878.8 | –
373.15 K, 40000 kPa | 885.2 | –
373.15 K, 45000 kPa | 888.3 | –
373.15 K, 50000 kPa | 891.3 | –
373.15 K, 60000 kPa | 897 | –
373.15 K, Concentric cylinders viscometry | – | 2.661
398.15 K, 1000 kPa | 839 | –
398.15 K, 5000 kPa | 842.8 | –
398.15 K, 10000 kPa | 847.3 | –
398.15 K, 15000 kPa | 851.6 | –
398.15 K, 20000 kPa | 855.8 | –
398.15 K, 30000 kPa | 863.4 | –
398.15 K, 40000 kPa | 870.4 | –
398.15 K, 45000 kPa | 873.7 | –
398.15 K, 50000 kPa | 877 | –
398.15 K, 60000 kPa | 883.1 | –

viscosity [mPa·s], Falling or rolling sphere viscometry
Settings | 298.15 K | 313.15 K | 323.15 K | 348.15 K | 373.15 K | 398.15 K
100 kPa | 17 | 10.2 | 7.53 | 4.17 | 2.67 | 1.84
1000 kPa | 17.3 | 10.3 | 7.63 | 4.21 | 2.7 | 1.86
5000 kPa | 18.4 | 10.9 | 8.09 | 4.42 | 2.84 | 1.96
10000 kPa | 19.9 | 11.7 | 8.68 | 4.69 | 3.03 | 2.07
15000 kPa | 21.5 | 12.5 | 9.29 | 4.97 | 3.22 | 2.2
20000 kPa | 23.2 | 13.4 | 9.94 | 5.28 | 3.42 | 2.32
30000 kPa | 26.8 | 15.2 | 11.3 | 5.94 | 3.83 | 2.59
40000 kPa | 30.8 | 17.3 | 12.8 | 6.68 | 4.27 | 2.86
45000 kPa | 33 | 18.4 | 13.6 | 7.07 | 4.49 | 3.01
50000 kPa | 35.2 | 19.6 | 14.4 | 7.48 | 4.72 | 3.16
60000 kPa | 40 | 22 | 16 | 8.37 | 5.19 | 3.46
